Data from patent US20240261271A1, “APPLICATION OF HYDRONIDONE IN PREPARATION OF DRUG FOR TREATING OR PREVENTING CHRONIC HEPATITIS B WITH LIVER FIBROSIS” (priority 2021, published 2024).

What was measured:
[1] = Phase II clinical study: safety (adverse events, adverse effects, SAE); type: in vivo; settings: 180, 270 and 360 mg groups vs placebo, 52 weeks, adverse effects and SAE incidence rates not statistically different
Source text: Safety indexes: vital signs, laboratory indexes, adverse events/adverse effects, and the like.
All cases that had been randomized, used the study drug at least once, and had safety evaluation data after medication, constitute the safety population for this study.
Safety indexes include adverse events/adverse effects, laboratory indexes, physical examinations, and the like. • 1. The incidence rates of the adverse events/adverse effects of each group were compared using CMH-λ2 test or Fisher's exact probability method, and the relative frequency and severity of all the adverse events in the test, the relationship with the drug, the treatment, the outcome, and the like were described in a table. • 2. The physical examinations were described in a table for normal/abnormal changes after the experiment. • 3. The laboratory indexes were described in a table for normal/abnormal changes, abnormal exacerbation, and the like before and after the test, and the relationship between the laboratory indexes and the test drug was evaluated. The quantitative indexes were statistically described for each time point measured, the variation inside the groups was compared using Wilcoxon signed rank test, and the variation between the groups was compared using Kruskal-Wallis H test.

[2] = test system: liver stiffness in chronic hepatitis B with hepatic fibrosis; assay: Phase II clinical study: liver transient elastography LSM (kPa); type: in vivo, human; settings: FAS, after 52 weeks of treatment
Method: (§1) This is a randomized, double-blind, placebo-controlled, multicenter, and dose-finding phase II clinical study with foundational treatment. In the clinical trial, three different dose test groups and a placebo control group were set on the basis of the entecavir capsule antiviral treatment, and the planned sample amount of each group was 60 cases, totaling 240 cases. The three dose test groups were 180 mg group, 270 mg group, and 360 mg group, respectively. The proportion of each test group to the control group was 1:1:1:1, and the cases were distributed randomly. […] Negative conversion rate of HBV DNA after treatment between the groups was compared using CMH-λ2 test or Fisher's exact probability method. • 2. Liver tissue elasticity reduction after treatment between the groups was compared using Kruskal-Wallis H test. • 3. […] The recovery rate of the liver function index after treatment between the groups was compared using CMH-λ2 test or Fisher's exact probability method, and the found values of each index between the groups were compared using variance analysis or Kruskal-Wallis H test.

[3] = test system: HBV DNA; assay: Phase II clinical study: negative conversion rate of HBV DNA; type: in vivo, human; settings: for proportion of the subjects with HBV DNA substantially converted to negative: after 52 weeks of treatment, with entecavir
Method: as §1

Cc1ccc(=O)n(-c2ccc(O)cc2)c1 [hydronidone]
safety [1]: good | mean decline rate (standard deviation) of the liver transient elastography LSM (kPa) ([2]; 180 mg group): 18.30% | mean decline rate (standard deviation) of the liver transient elastography LSM (kPa) ([2]; 270 mg group): 24.62% | mean decline rate (standard deviation) of the liver transient elastography LSM (kPa) ([2]; 360 mg group): 18.98% | proportion of the subjects with HBV DNA substantially converted to negative ([3]; 180 mg group): 34 (94.44%) n(%) | proportion of the subjects with HBV DNA substantially converted to negative ([3]; 270 mg group): 34 (97.14%) n(%) | proportion of the subjects with HBV DNA substantially converted to negative ([3]; 360 mg group): 32 (94.12%) n(%) | influence on the reduction of the virus titer by entecavir and the ALT recovery ([3]; each hydronidone test group, 52 weeks): no influence
